Publication PMC9741287, “Cytotoxic and Luminescent Properties of Novel Organotin Complexes with Chelating Antioxidant Ligand” (Molecules, 2022)
Read-outs that look alike come from different tables or passages of the source.

Key:
[1] = system: superoxide radical anion O2−• (xanthine-xanthine oxidase system); test: NBT-test, superoxide generated in the xanthine-xanthine oxidase system; assay type: biochemical; conditions: for I (NBT-Test): 0.006 mL of 5 mM compound in DMSO per 0.3 mL well, 600 s, 560 nm, negative = stimulation
Source text: Xanthine oxidase is molybdenum containing enzyme responsible for purine catabolism in the human organism. It is capable of xanthine oxidation, resulting in uric acid and superoxide radical anion as a side product. The latter one is well-known ROS, and the ability to neutralize it marks the compound as a perspective antioxidant. This is followed by the interaction of O2^−• and nitro-blue tetrazolium resulting in the cycle opening (Scheme 4), which is accompanied by the color change with λmax = 560 nm and can be monitored spectrophotometrically.
The influence of compounds on superoxide radical anion О2^−• generated in the enzymatic system xanthine-xanthine oxidase was estimated as the amount of nitro-blue tetrazolium (NBT) reduced to formazan. The assay was carried out in 96-well plates. The total volume of a single well was 0.3 mL and consisted of 0.27 mL of carbonate buffer (40 mM, pH 10.0) containing EDTA (0.1 mM), 0.006 mL of xanthine (10 mM) in carbonate buffer, 0.003 mL of 0.5% bovine serum albumin in water, 0.003 mL of NBT chloride (2.5 mM) in water, and 0.006 mL of a solution of the studied compound in DMSO (5 mM). Xanthine oxidase (0.012 mL, 0.004 units) in buffer was added to the mixture at rt to start the reaction and the absorption at λmax = 560 nm was recorded for 600 s. The control experiment was performed in the presence of 0.006 mL DMSO without a compound. All experiments were performed in triplicate.
Inhibition was expressed by the Equation (2):I (%) = (ν0/ν0′) × 100%,(2) where v0 and v0′ are initial rates of the enzymatic reaction in the presence and absence (control) of the compounds under study, respectively.
The initial rate (v0 and v0′) was calculated by the Equation (3):ν0 = ΔС/Δt = ΔA/(Δt × ε) = tgα/(Δt × ε),(3)
A1 is the absorbance in the presence of the testing compound at the end of the reaction (600 s), and A0 is the absorbance of the blank solution. ΔA is the difference between A1 and A0. All experiments were performed in triplicate.

[2] = biological target: T1, Soybean lipoxygenase LOX-1B (Glycine max, UniProt P08170); test: Lipoxygenase inhibition assay; assay type: biochemical; conditions: 3 µL of 1 mM compound in DMSO per 150 µL, 5 min, 20 °C, 234 nm
T1 sequence (P08170 1-839): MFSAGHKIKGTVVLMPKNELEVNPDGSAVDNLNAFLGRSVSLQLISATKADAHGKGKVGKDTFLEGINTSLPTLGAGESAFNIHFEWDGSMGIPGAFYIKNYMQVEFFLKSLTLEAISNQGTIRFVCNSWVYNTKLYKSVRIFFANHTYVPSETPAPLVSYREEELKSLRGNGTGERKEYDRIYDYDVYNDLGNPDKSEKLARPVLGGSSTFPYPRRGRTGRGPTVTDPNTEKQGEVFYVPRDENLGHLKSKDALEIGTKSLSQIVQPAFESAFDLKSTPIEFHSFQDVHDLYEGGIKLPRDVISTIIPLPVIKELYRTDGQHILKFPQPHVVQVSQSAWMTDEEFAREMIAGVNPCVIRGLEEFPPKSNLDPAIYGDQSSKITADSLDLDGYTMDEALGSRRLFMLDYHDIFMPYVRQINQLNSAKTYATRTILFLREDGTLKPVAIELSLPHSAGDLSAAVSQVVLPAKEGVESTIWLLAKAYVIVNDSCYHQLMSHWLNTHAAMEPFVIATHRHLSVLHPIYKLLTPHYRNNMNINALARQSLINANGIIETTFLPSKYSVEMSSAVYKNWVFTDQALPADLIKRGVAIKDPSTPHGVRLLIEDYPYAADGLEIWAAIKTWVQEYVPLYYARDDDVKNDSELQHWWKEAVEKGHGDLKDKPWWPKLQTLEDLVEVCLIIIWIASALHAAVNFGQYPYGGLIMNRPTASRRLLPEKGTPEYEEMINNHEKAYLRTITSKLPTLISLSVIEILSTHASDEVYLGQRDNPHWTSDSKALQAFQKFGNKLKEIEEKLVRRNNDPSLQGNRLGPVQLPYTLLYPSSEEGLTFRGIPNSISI
Source text: Lipoxygenases are a group of enzymes catalyzing regioselective oxidation of polyunsaturated fatty acids to corresponding hydroperoxides. […] Soybean lipoxygenase LOX-1B was used as a model enzyme since it is structurally relative to human 5-lipoxygenases. The influence of synthesized compounds 1–7 on the LOX-1B activity was estimated as a formation rate of octadecadienoic acid hydroperoxides (λmax = 234 nm) from the initial acid and was monitored spectrophotometrically (Table 1).
The lipoxygenase activity was evaluated spectrophotometrically. The concentrations of linoleic acid oxidation products, isomeric hydroperoxides, were measured at λmax = 234 nm (ε = 25,000 L mol^−1 cm^−1) with a 96-well microplate spectrophotometer Multiskan Go (Thermo Fisher Scientific, Waltham, MA, USA). The analyzed solution contained 30 µL borate buffer (pH 9.0), 100 µL linoleic acid (0.45 mM) in borate buffer, and 3 µL 1 mM solution of the test compound in DMSO. The reaction was initiated by the addition of 17 µL of lipoxygenase (500 U) solution in borate buffer. The measurements were performed for 5 min at 20 °C.
The inhibition rate I (%) of lipoxygenase was determined by the Equations (2) and (3), where A0 is the absorbance of the control solution, and A1 is the absorbance of the reaction mixture in the presence of the tested compound 5 min after the beginning of the reaction. ΔA is the difference between A1 and A0. All experiments were performed in triplicate.

[3] = system: WI-38 (human fetal lung fibroblast); test: MTT-test WI-38; assay type: cell-based
Protocol: (§1) Since the investigated compounds are designed as theranostic and cytostatic agents, their toxic impact was evaluated as a standard MTT-test. Cytotoxicity was studied on four cell lines, i.e.,—HCT116 (human colorectal carcinoma), MCF-7 (human breast cancer), A549 (human lung adenocarcinoma), and WI-38 (human fetal lung fibroblast). Obtained results appear to be unorthodox: as it is known, the introduction of an organotin moiety tends to noticeably increase compounds’ toxicity and more lipophilic ones do it better, but in the presented data pattern turns vice versa (Table 3).
(§2) HCT-116 (colon carcinoma), MCF-7 (breast adenocarcinoma), A-549 (lung adenocarcinoma) cell lines, and WI-38 (cell line composed of fibroblasts) were derived from The European Collection of Authenticated Cell Cultures (ECACC, Salisbury, UK), cultured in DMEM medium (Gibco™, Dublin, Ireland) supplemented with 10% fetal bovine serum (Gibco™, Brasilia, Brazil). The cells were cultured in an incubator at 37 °C in a humidified 5% CO2 atmosphere and subcultured two times a week.
(§3) The toxicity of compounds was studied on cultured cell lines according to standard MTT protocol.

[4] = system: A549 (human lung adenocarcinoma); test: MTT-test A549; assay type: cell-based
Protocol: as §1, §2, §3

| SMILES | I (NBT-Test) [1] | I (LOX Inhibition Assay) [2] | IC50 [3] | IC50 [4] | O2−• scavenging in NBT-test [1] | inhibition at 1000 µM (stock) ([2]; read-out: I (LOX Inhibition Assay)) | IC50 ([3]; Homo sapiens, WI-38) | IC50 ([4]; Homo sapiens, A549) |
| --- | --- | --- | --- | --- | --- | --- | --- | --- |
| CCC[CH2][Sn]1([CH2]CCC)[O]C(c2cc(C(C)(C)C)c(O)c(C(C)(C)C)c2)=NN=Cc2ccccc2[O]1 [Compound 4, Bu2SnL] | −4.6 ± 1.2% | 47.5 ± 3.8% | 10.8 ± 3.5 µM | 14.5 ± 4.5 µM |  |  |  |  |
| CC(C)(C)c1cc(C2=NN=Cc3ccccc3[O][Sn]([c]3ccccc3)([c]3ccccc3)[O]2)cc(C(C)(C)C)c1O [Compound 6, Ph2SnL] | −28.0 ± 3.6% | 44.9 ± 3.7% | 52.6 ± 14.6 µM | 20.2 ± 4 µM | stimulate O2^−· formation instead of inhibiting it |  |  |  |
| CC(C)(C)c1cc(C2=NN=Cc3ccccc3[O][Sn]([CH3])([CH3])[O]2)cc(C(C)(C)C)c1O [Compound 2, Me2SnL] | 6.3 ± 1.8% | 57.1 ± 4.7% | 9.5 ± 3.1 µM | 2.2 ± 0.7 µM |  |  |  |  |
| CC(C)(C)c1cc(C2=NN=Cc3ccccc3[O][Sn]([c]3cc(C(C)(C)C)c(O)c(C(C)(C)C)c3)([c]3cc(C(C)(C)C)c(O)c(C(C)(C)C)c3)[O]2)cc(C(C)(C)C)c1O [Compound 7, (2,6-Di-tert-butylphenol)2SnL] | −40.5 ± 4.2% | 66.0 ± 5.9% | 10.6 ± 3.5 µM | 31.9 ± 5.7 µM | stimulate O2^−· formation instead of inhibiting it |  |  |  |
| C[CH2][Sn]1([CH2]C)[O]C(c2cc(C(C)(C)C)c(O)c(C(C)(C)C)c2)=NN=Cc2ccccc2[O]1 [Compound 3, Et2SnL] | 7.3 ± 2.0% | 61.1 ± 5.1% | 5.8 ± 1.5 µM | 1.5 ± 0.5 µM |  |  |  |  |
| CC(C)(C)c1cc(C2=NN=Cc3ccccc3[O][Sn]([C](C)(C)C)([C](C)(C)C)[O]2)cc(C(C)(C)C)c1O [Compound 5, Bu^t2SnL] | 5.9 ± 1.5% | 61.4 ± 5.3% | 26.3 ± 11.3 µM | 43 ± 10 µM |  |  |  |  |
| CC(C)(C)c1cc(C(=O)N/N=C/c2ccccc2O)cc(C(C)(C)C)c1O [Compound 1, Di-tert-butyl-4-hydroxy-N′-(2-hydroxybenzylidene)-benzohydrazine] | 0.5 ± 0.1% |  |  |  |  | 51.7 ± 4.2% | 6.6 ± 1.2 µM | 2.2 ± 0.4 µM |
